Data as given in article PMC9633773, “Discovering cell-active BCL6 inhibitors: effectively combining biochemical HTS with multiple biophysical techniques, X-ray crystallography and cell-based assays” (Scientific Reports, 2022).
Converted amounts (≈) assume the structure as drawn. Read-outs that look alike come from different tables or passages of the source.

Experiments:
[1] = molecular target: T1, Trx-6His-BCL6 BTB (Homo sapiens, UniProt P41182); test: TR-FRET assay, Trx-6His-BCL6 BTB / BCOR-A633 peptide; assay type: biochemical
T1 construct: made in house; host or cells: E. coli BL21-AI
Procedure: Each 15 µL TR-FRET reaction in 384-well black Proxiplate (Perkin Elmer) contained 1 or 10 nM Trx-6His-BCL6 BTB, 300 nM BCOR-A633 and 0.5 or 1 nM anti-6His-Terbium cryptate (Perkin Elmer), in the FP assay buffer (25 mM Hepes pH 8, 100 mM NaCl, 0.05% (v/v) Tween20, 0.5 mM TCEP), supplemented with 0.05% (w/v) bovine serum albumin. Test compounds in DMSO or DMSO alone were added to the wells using and Echo 550 acoustic dispenser to give the appropriate test concentration in 0.7% v/v DMSO final. After a 2 h incubation at room temperature, the plates were read on an Envision plate reader or a Pherastar FSX plate reader with 337 nm laser excitation, a first emission filter at 665 nm and a second emission filter at 615 or 620 nm. Data were normalised and IC50 determined as described above for the FP assay.

[2] = PAMPA passive permeability; assay type: in vitro ADME; design: PAMPA pH7.4: unit not given here; settings: pH 7.4
Procedure: Passive diffusion permeability was measured using a parallel artificial membrane permeability assay (PAMPA). The assay used an artificial membrane consisting of 2% (v/v) phosphatidyl choline in dodecane (Sigma Aldrich, Dorset, UK). The donor plate was a MultiScreen-IP Plate with a 0.45 µm hydrophobe Immobilon-P membrane (Millipore, UK) and the acceptor plate was a MultiScreen 96-well transport receiver plate (Millipore, UK). The permeability of test compound (10 µM) was measured at pH 7.4 in buffer containing 1% (w/v) Bovine Serum Albumin (Sigma Aldrich, Dorset, UK) following a 16 h incubation at 30 °C. After transfer and centrifugation, sample supernatants were diluted and analysed using a Waters (Milford, MA, US) TQ-S LC-MS/MS system. Permeability values (cm/s) were calculated using the following equation, where VD and VA are the volumes of donor and acceptor, respectively, and area is the surface area of the membrane x porosity: Papp=C x ln1-Drugacceptor/Drugequilibrium,whereC=VDxVA/VD+VAx area x time

[3] = Caco-2 efflux ratio; assay type: in vitro ADME; settings: human
[4] = HPLC aqueous solubility; assay type: physicochemical; settings: aqueous buffer, kinetic from dmso stock; PBS buffer pH 7.4, 1% DMSO, maximum targeted concentration 100 µM; read-out: HPLC Sol.
Procedure: Solubility measurements by quantitative ^1H-NMR or HPLC method were performed as described previously.

[5] = molecular target: T2, ePL-tagged BCL6 BTB in HEK293T cells (Homo sapiens, UniProt P41182); test: InCELL Hunter cellular target engagement assay; assay type: cell-based
T2 construct: BCL6 BTB domain (HDSD51 plasmid construct encoding amino-acids 14–135) fused to a C-terminal ePL tag; expressed in transfected cells; host or cells: HEK293T
Procedure: BCL6 cellular target engagement assays were established using the InCELL Hunter™ Target Engagement Kit from DiscoverX-Eurofin. For the assay, the expressed protein comprised the N-terminal truncated region of BCL6 BTB domain (HDSD51 plasmid construct encoding amino-acids 14–135) fused to a C-terminal ePL tag (enhanced ProLabel, DiscoverX). Constructs were transfected over 24 h in HEK293T cells using Lipofectamine 3000 (ThermoFisher Scientific) and 2.5 × 10^5 transfected cells / well in phenol red-free OptiMEM medium (ThermoFisher Scientific) were re-plated in 384 assay plates before treating with compounds for 6 h. To complete the assay, cells were incubated for 30 min at room temperature with the InCell Hunter assay reagents mix following the manufacturer’s instructions, before reading the chemiluminescent signal on an Envision (Perkin Elmer) plate reader.

[6] = molecular target: T3, full-length BCL6/SMRT protein–protein interaction in HEK293T cells (Homo sapiens, UniProt P41182); test: NanoBRET cellular assay; assay type: cell-based
T3 construct: DNA encoding full length BCL6 and SMRT was inserted into pFC32K NanoLuc and pFC14K HaloTag vectors; expressed in transfected cells; host or cells: HEK293T

| SMILES | IC50 ([1]; 1 or 10 nM Trx-6His-BCL6 BTB, read-out: TR-FRET IC50) | Papp at 16 h, 10 µM ([2]; PAMPA, read-out: PAMPA passive cell permeability) | efflux ratio [3] | IC50 ([1]; 1 nM BCL6 BTB domain, geometric mean n=3–5, read-out: TR-FRET Geo Mean IC50) | solubility kinetic [4] | EC50 ([5]; Figure 6B, ePL-tagged BCL6 BTB 14–135, 6 h, n=3, read-out: InCELL Hunter EC50) | EC50 ([5]; Table S3, C-terminally ePL-tagged BCL6 BTB 14-135, 6 hours, read-out: InCELL Geomean EC50) | IC50 ([6]; BCL6.NanoLuc/SMRT.HaloTag configuration, HEK293T, 6 h, geometric mean n=3–4, read-out: Nano BRET Geo Mean IC50) | NanoBRET inhibition, HaloTag.BCL6/NanoLuc.SMRT combination ([6]; BCL6 N-terminally fused to HaloTag) | IC50 ([6]; Figure 7B, C-terminally NanoLuc tagged BCL6 / SMRT.HaloTag, read-out: NanoBRET IC50, BCL6.NanoLuc) | PAMPA pH7.4 [2] |
| --- | --- | --- | --- | --- | --- | --- | --- | --- | --- | --- | --- |
| CC(C)OC(=O)c1cc(Nc2ccc3c(c2)CC(=O)N3C)n2nccc2n1 [Compound 25, isopropyl 7-((1-methyl-2-oxoindolin-5-yl)amino)pyrazolo[1,5-a]pyrimidine-5-carboxylate] | 2.1 ± 0.1 µM | 110 ×10⁻⁶ cm/s | 0.72 | – | – | – | – | – | – | – | – |
| CNC(=O)c1cc(Nc2ccc3c(c2)n(CCC(C)(C)O)c(=O)n3C)c(C#N)c(Cl)n1 [Compound 27] | – | – | – | 0.5 µM | 80 µM (≈ 35.4 µg/mL) | 24 ± 9 µM | 23.7 µM | 2.93 µM | only very weak inhibition | 3 µM | 19 |
